Results on 16 substances are retold here after patent publication US11197914B2, “GLP-1R/GCGR dual target agonist polypeptide for treatment of fatty liver diseases, hyperlipemia and arteriosclerosis” (Shenzhen Turier Biotech Co., Ltd., priority 2016, dated 2021).

*1 amine or outer side, *2 acyl side, *3 side chain or, on linkers, in order; H or OH if unused. Primed or numbered codes have the meaning given here. Where no end group is shown, it is not given here. Side-chain parts run from the residue outwards. [ ]: non-standard residue; d: D form. The star is where a group is joined. C18 diacid = O=C(O)CCCCCCCCCCCCCCCCC(=O)*; C16 diacid = O=C(O)CCCCCCCCCCCCCCC(=O)*; γGlu = O=C(O)[C@H](CCC(=O)[*:2])N[*:1]; Stearoyl = CCCCCCCCCCCCCCCCCC(=O)*; Palmitoyl = CCCCCCCCCCCCCCCC(=O)*; Nle = CCCC[C@H](N)C(=O)O; PEG2′ = not defined here; Aib = CC(C)(N)C(=O)O

The subject of experiment [1] is Hepatic stellate cell strain LX-2. The experiment is described as follows: In vitro inhibition of hepatic fibrosis: expression of LX-2 cell activation marker α-SMA (Western Blot, α-SMA/β-actin). The following applies: LX-2 cells; for Relative expression of α-SMA (α-SMA/β-actin, %): 48 hours, negative control = 100%; for Effect on expression of α-SMA (in words): 1 μM and 5 μM. It is filed as cell-based, human. On the procedure:
Hepatic stellate cell strain LX-2 was selected to study and observe the effect of different doses of test substances on the expression of LX-2 cell activation marker […]. Hepatic stellate cell LX-2 was laid on 35 mm cell culture plate, cultured with DMEM (high glucose)+10% FBS+1% double-antibody culture medium (Thermo Fisher), placed overnight when the cells grew to 70% convergence at 37° C. and under the condition of 5% CO2, and treated with the above compounds 1-37 (dissolved in PBS) for 48 hours the next day morning to extract cell protein, carry out Western Blot, and take β-actin as internal reference and analyze the expression quantities of α-SMA and β-actin by a gray level of Image J 1.50i. PBS with the same volume as that in experimental group was added in negative control. […] The integrating gray level of α-SMA/β-actin in the negative control group was 100% to analyze the in vitro inhibition activity of hepatic fibrosis of tested polypeptide.

The test system of experiment [2] is CCl4-induced hepatic fibrosis mice. The experiment is described as follows: CCl4-induced hepatic fibrosis in mice. It counts as in vivo, C57 mice. The following applies: 500 μg/kg subcutaneous once every two days, 6 weeks. On the procedure: 6-8-week-old C57 mice with body weight of 20-25 g at SPF level were provided by Guangdong Medical Laboratory Animal Center and tested by SPF level laboratory in Laboratory Animal Center of Guangdong Pharmaceutical University. C57 mice were divided into control group, hepatic fibrosis model group and treatment group, 8 mice for each group. A mouse was subject to intraperitoneal injection with 20% CCl4 (2 mL/kg, diluted with olive oil at ratio of 1:4) twice a week for continuous 6 weeks to form a stable hepatic fibrosis animal model. For the treatment group, one of subcutaneous injection compounds 2, 6 and 22 with 500 μg/kg of body weight was used respectively once every two days for continuous 6 weeks. Olive oil with same volume and same frequency was administered for the control group and stopped until the end of 6-week experiment. After the end of the experiment, the mice were subject to anesthesia to collect serum and liver specimens. The liver was fixed with 10% formalin and embedded with paraffin.

Take “His-(D-Ser)-Gln-Gly-Thr-Phe-Thr-Ser-Asp-Tyr-Ser-Lys-Tyr-Leu-Asp-Lys(PEG2-PEG2-CO(CH2)16CO2H)-Arg-Arg-Ala-Gln-Asp-Phe-Val-Gln-Trp-Leu-Met-Asn-Thr-Gly-Gly-Pro-Ser-Ser-Gly-Ala-Pro-Pro-Pro-Ser-NH2 (H[dS]QGTFTSDYSKYLDK([PEG2′-PEG2′-C18 diacid])RRAQDFVQWLMNTGGPSSGAPPPS-NH2) [Compound 35]”: in experiment [1], the “Inhibition of LX-2 cell activation marker α-SMA (in words, from Table 2)” value (“Inhibition” below) is reported as “obviously reduce”. Further, the “Relative expression of α-SMA (α-SMA/β-actin, %)” value in experiment [1] (1 μM) was determined as 61.28%.

Regarding “His-(D-Ser)-Gln-Gly-Thr-Phe-Thr-Ser-Asp-Tyr-Ser-Lys-Tyr-Leu-Asp-Lys(PEG2-PEG2-γGlu-CO(CH2)14CH3)-Arg-Arg-Ala-Gln-Asp-Phe-Val-Gln-Trp-Leu-Nle-Asn-Thr-Gly-Gly-Pro-Ser-Ser-Gly-Ala-Pro-Pro-Pro-Ser-NH2 (H[dS]QGTFTSDYSKYLDK([PEG2′-PEG2′-γGlu-Palmitoyl])RRAQDFVQWL[Nle]NTGGPSSGAPPPS-NH2) [Compound 37]”, in experiment [1] (1 μM), the “Relative expression of α-SMA (α-SMA/β-actin, %)” value is reported as 42.45%. For the substance “His-(D-Ser)-Gln-Gly-Thr-Phe-Thr-Ser-Asp-Tyr-Ser-Lys-Tyr-Leu-Asp-Lys(PEG2-PEG2-γGlu-CO(CH2)16CH3)-Arg-Arg-Ala-Gln-Asp-Phe-Val-Gln-Trp-Leu-Met-Asn-Thr-Gly-Gly-Pro-Ser-Ser-Gly-Ala-Pro-Pro-Pro-Ser-NH2 (H[dS]QGTFTSDYSKYLDK([PEG2′-PEG2′-γGlu-Stearoyl])RRAQDFVQWLMNTGGPSSGAPPPS-NH2) [Compound 36]”, in experiment [1], the “Inhibition” value was “obviously reduce”. Besides, the “Relative expression of α-SMA (α-SMA/β-actin, %)” value in experiment [1] (1 μM) amounted to 62.49%. For the substance “His-(D-Ser)-Gln-Gly-Thr-Phe-Thr-Ser-Asp-Tyr-Ser-Lys-Tyr-Leu-Asp-Lys(PEG2-PEG2-γGlu-CO(CH2)16CO2H)-Arg-Arg-Ala-Gln-Asp-Phe-Val-Gln-Trp-Leu-Met-Asn-Thr-Gly-Gly-Pro-Ser-Ser-Gly-Ala-Pro-Pro-Pro-Ser-NH2 (H[dS]QGTFTSDYSKYLDK([PEG2′-PEG2′-γGlu-C18 diacid])RRAQDFVQWLMNTGGPSSGAPPPS-NH2) [Compound 34]”, the “Relative expression of α-SMA (α-SMA/β-actin, %)” value in experiment [1] (1 μM) is listed as 88.18%. Still for that read-out and setting: then “His-(D-Ser)-Gln-Gly-Thr-Phe-Thr-Ser-Asp-Tyr-Ser-Lys-Tyr-Leu-Asp-Ser-Lys(PEG2-PEG2-γGlu-CO(CH2)16CH3)-Ala-Ala-His-Asp-Phe-Val-Glu-Trp-Leu-Leu-Arg-Ala-NH2 (H[dS]QGTFTSDYSKYLDSK([PEG2′-PEG2′-γGlu-Stearoyl])AAHDFVEWLLRA-NH2) [Compound 25]”, with 93.34%. For “His-(D-Ser)-Gln-Gly-Thr-Phe-Thr-Ser-Asp-Tyr-Ser-Lys-Tyr-Leu-Asp-Ser-Lys(PEG2-PEG2-γGlu-CO(CH2)16CH3)-Ala-Ala-His-Asp-Phe-Val-Glu-Trp-Leu-Leu-Asn-Gly-Gly-Pro-Ser-Ser-Gly-Ala-Pro-Pro-Pro-Ser-NH2 (H[dS]QGTFTSDYSKYLDSK([PEG2′-PEG2′-γGlu-Stearoyl])AAHDFVEWLLNGGPSSGAPPPS-NH2) [Compound 22]”, in experiment [2], the “ALT level of serum” value is on record as “obviously reduce”; the “CCl4-induced liver injury and fibrosis stage (HE, Sirius Red)” value is listed as “obviously improved”. The “Relative expression of α-SMA (α-SMA/β-actin, %)” value in experiment [1] (1 μM) is on record as 90.56%. Regarding “His-(D-Ser)-Gln-Gly-Thr-Phe-Thr-Ser-Asp-Tyr-Ser-Lys-Tyr-Leu-Asp-Ser-Lys(PEG2-PEG2-γGlu-CO(CH2)16CO2H)-Ala-Ala-His-Asp-Phe-Val-Glu-Trp-Leu-Leu-Arg-Ala-NH2 (H[dS]QGTFTSDYSKYLDSK([PEG2′-PEG2′-γGlu-C18 diacid])AAHDFVEWLLRA-NH2) [Compound 17]”, the “Relative expression of α-SMA (α-SMA/β-actin, %)” value in experiment [1] (1 μM) is 75.38%. Consider “His-(D-Ser)-Gln-Gly-Thr-Phe-Thr-Ser-Asp-Tyr-Ser-Lys-Tyr-Leu-Asp-Ser-Lys(PEG2-PEG2-γGlu-CO(CH2)16CO2H)-Ala-Ala-His-Asp-Phe-Val-Glu-Trp-Leu-Leu-Asn-Gly-Gly-Pro-Ser-Ser-Gly-Ala-Pro-Pro-Pro-Ser-NH2 (H[dS]QGTFTSDYSKYLDSK([PEG2′-PEG2′-γGlu-C18 diacid])AAHDFVEWLLNGGPSSGAPPPS-NH2) [Compound 21]”, for which the “Relative expression of α-SMA (α-SMA/β-actin, %)” value in experiment [1] (1 μM) amounted to 97.66%. On the same count and under the same terms, the value for “His-Aib-Gln-Gly-Thr-Phe-Thr-Ser-Asp-Lys(PEG2-PEG2-γGlu-CO(CH2)14CH3)-Ser-Lys-Tyr-Leu-Asp-Aib-Arg-Arg-Ala-Gln-Asp-Phe-Val-Gln-Trp-Leu-Leu-Asp-Gly-Gly-Pro-Ser-Ser-Gly-Ala-Pro-Pro-Pro-Ser-NH2 (H[Aib]QGTFTSDK([PEG2′-PEG2′-γGlu-Palmitoyl])SKYLD[Aib]RRAQDFVQWLLDGGPSSGAPPPS-NH2) [Compound 8]” was 80.25%.

“His-Aib-Gln-Gly-Thr-Phe-Thr-Ser-Asp-Lys(PEG2-PEG2-γGlu-CO(CH2)14CH3)-Ser-Lys-Tyr-Leu-Asp-Glu-Arg-Arg-Ala-Gln-Asp-Phe-Val-Gln-Trp-Leu-Leu-Asp-Gly-Gly-Pro-Ser-Ser-Gly-Ala-Pro-Pro-Pro-Ser-NH2 (H[Aib]QGTFTSDK([PEG2′-PEG2′-γGlu-Palmitoyl])SKYLDERRAQDFVQWLLDGGPSSGAPPPS-NH2) [Compound 16]”: in experiment [1], the “Inhibition” value is given as “obviously reduce”. Further, the “Effect on expression of α-SMA (in words)” value in experiment [1] (0.1 μM) is given as “reduce the expression of α-SMA under all concentrations”. Also, the “Relative expression of α-SMA (α-SMA/β-actin, %)” value in experiment [1] (0.1 μM) turned out to be 65.32%; in experiment [1] (1 μM), 48.88%; in experiment [1] (5 μM), 40.35%. For the substance “His-Aib-Gln-Gly-Thr-Phe-Thr-Ser-Asp-Lys(PEG2-PEG2-γGlu-CO(CH2)14CO2H)-Ser-Lys-Tyr-Leu-Asp-Aib-Arg-Arg-Ala-Gln-Asp-Phe-Val-Gln-Trp-Leu-Leu-Asp-Gly-Gly-Pro-Ser-Ser-Gly-Ala-Pro-Pro-Pro-Ser-NH2 (H[Aib]QGTFTSDK([PEG2′-PEG2′-γGlu-C16 diacid])SKYLD[Aib]RRAQDFVQWLLDGGPSSGAPPPS-NH2) [Compound 11]”, the “Relative expression of α-SMA (α-SMA/β-actin, %)” value in experiment [1] (1 μM) was determined as 96.78%. The same measure, in the same setting: the value for “His-Aib-Gln-Gly-Thr-Phe-Thr-Ser-Asp-Lys(PEG2-PEG2-γGlu-CO(CH2)14CO2H)-Ser-Lys-Tyr-Leu-Asp-Glu-Arg-Arg-Ala-Gln-Asp-Phe-Val-Gln-Trp-Leu-Leu-Asp-Gly-Gly-Pro-Ser-Ser-Gly-Ala-Pro-Pro-Pro-Ser-NH2 (H[Aib]QGTFTSDK([PEG2′-PEG2′-γGlu-C16 diacid])SKYLDERRAQDFVQWLLDGGPSSGAPPPS-NH2) [Compound 13]” was 97.93%; that for “His-Aib-Gln-Gly-Thr-Phe-Thr-Ser-Asp-Lys(PEG2-PEG2-γGlu-CO(CH2)16CH3)-Ser-Lys-Tyr-Leu-Asp-Aib-Arg-Arg-Ala-Gln-Asp-Phe-Val-Gln-Trp-Leu-Leu-Asp-Gly-Gly-Pro-Ser-Ser-Gly-Ala-Pro-Pro-Pro-Ser-NH2 (H[Aib]QGTFTSDK([PEG2′-PEG2′-γGlu-Stearoyl])SKYLD[Aib]RRAQDFVQWLLDGGPSSGAPPPS-NH2) [Compound 12]” was 72.99%; that for “His-Aib-Gln-Gly-Thr-Phe-Thr-Ser-Asp-Lys(PEG2-PEG2-γGlu-CO(CH2)16CH3)-Ser-Lys-Tyr-Leu-Asp-Glu-Arg-Arg-Ala-Gln-Asp-Phe-Val-Gln-Trp-Leu-Leu-Asp-Gly-Gly-Pro-Ser-Ser-Gly-Ala-Pro-Pro-Pro-Ser-NH2 (H[Aib]QGTFTSDK([PEG2′-PEG2′-γGlu-Stearoyl])SKYLDERRAQDFVQWLLDGGPSSGAPPPS-NH2) [Compound 14]” was 92.80%. On to “His-Aib-Gln-Gly-Thr-Phe-Thr-Ser-Asp-Lys(PEG2-PEG2-γGlu-CO(CH2)16CO2H)-Ser-Lys-Tyr-Leu-Asp-Aib-Arg-Arg-Ala-Gln-Asp-Phe-Val-Gln-Trp-Leu-Leu-Asp-Gly-Gly-Pro-Ser-Ser-Gly-Ala-Pro-Pro-Pro-Ser-NH2 (H[Aib]QGTFTSDK([PEG2′-PEG2′-γGlu-C18 diacid])SKYLD[Aib]RRAQDFVQWLLDGGPSSGAPPPS-NH2) [Compound 19]”, for which, in experiment [1], the “Inhibition” value is “obviously reduce”. Besides, the “Effect on expression of α-SMA (in words)” value in experiment [1] (0.1 μM) is on record as “reduce the expression of α-SMA under all concentrations”. Also, the “Relative expression of α-SMA (α-SMA/β-actin, %)” value in experiment [1] (0.1 μM) amounted to 71.48%; in experiment [1] (1 μM) it was 43.46%; in experiment [1] (5 μM) it was 39.75%.

Turning to “His-Aib-Gln-Gly-Thr-Phe-Thr-Ser-Asp-Lys(PEG2-PEG2-γGlu-CO(CH2)16CO2H)-Ser-Lys-Tyr-Leu-Asp-Glu-Arg-Arg-Ala-Gln-Asp-Phe-Val-Gln-Trp-Leu-Leu-Asp-Gly-Gly-Pro-Ser-Ser-Gly-Ala-Pro-Pro-Pro-Ser-NH2 (H[Aib]QGTFTSDK([PEG2′-PEG2′-γGlu-C18 diacid])SKYLDERRAQDFVQWLLDGGPSSGAPPPS-NH2) [Compound 15]”, the “Relative expression of α-SMA (α-SMA/β-actin, %)” value in experiment [1] (1 μM) is 77.29%.
